In general, IC50 refers to the midpoint of a concentration-inhibition curve.

Experimental findings from patent US11629141B2, “Proteasome inhibitors and uses thereof” (CORNELL UNIVERSITY, priority 2015, dated 2023) are described below.

Type in all cases: biochemical
Assay [1] deals with T1, human immunoproteasome β5i (Homo sapiens, UniProt P28062).
T1 construct: purchased Boston Biochem Inc
Put plainly: IC50 against chymotryptic β5i activity of human immunoproteasome (96-well plate, Ac-ANW-AMC). To be noted: β5i; substrate Ac-ANW-AMC; read-out: IC50 Hu i-20S (Ac-ANW-AMC).

A further assay has as its target T2, β2c (Homo sapiens, UniProt Q99436).
T2 construct: purchased Boston Biochem Inc
Put plainly: Inhibition of β2c activity. Particulars: no inhibition <33 μM. The method, then: (§1) The foregoing features of these AsnEDA encouraged a further round of SAR studies (Table 5) based on varying the carboxylic acid at the ethylenediamine, the N-cap at the Asn, and the side chain of the Asn, based on PKS21004. All compounds listed in the Table 5 were synthesized as described in Examples 6-77. All final compounds were confirmed by NMR and HRMS. IC50s of all compounds against β5i and β5c (Table 5), β1i, β2i, β1c and β2c were determined following a reported method (Lin et al., “N,C-Capped Dipeptides With Selectivity for Mycobacterial Proteasome Over Human Proteasomes: Role of S3 and S1Binding Pockets,” J Am Chem Soc. 135:9968-9971 (2013), which is hereby incorporated by reference in its entirety). […] The [1,1′-biphenyl]-3-carboxamide of PKS21004 was then modified with the following substituents: 4′-fluoro (PKS21026), 4′-cyano (PKS21028), 4-fluoro (PKS21196), 4,3′-difluoro (PKS21195) and 4,2′-difluoro (PKS21187).

Another assay deals with T3, β1i (Homo sapiens, UniProt P28065).
T3 construct: purchased Boston Biochem Inc
Put plainly: Inhibition of β1i activity. To be noted: no inhibition <33 μM. The procedure:
as §1

The target of another assay is T4, β2i (Homo sapiens, UniProt P40306).
T4 construct: purchased Boston Biochem Inc
Kind of assay: Inhibition of β2i activity. To be noted: no inhibition <33 μM. The method, then:
as §1

The next assay has as its target T5, β1c (Homo sapiens, UniProt P28072).
T5 construct: purchased Boston Biochem Inc
Kind of assay: Inhibition of β1c activity. Particulars: no inhibition <33 μM. The procedure: as §1

As to `CC(C)(C)NC(=O)C[C@H](NC(=O)CCc1ccccc1)C(=O)NCCNC(=O)c1cccc(-c2ccccc2)c1` [PKS21004], the IC50 in assay [1] is 58 nM. The “IC50 against β2c” value against β2c is listed as “no inhibition”. Moreover, at β1i, the “IC50 against β1i” value is given as “no inhibition”. The “IC50 against β2i” value against β2i is “no inhibition”. On β1c, the “IC50 against β1c” value is on record as “no inhibition”.
